In patent US20240308995A1, “O-GLYCOPROTEIN-2-ACETAMIDO-2-DEOXY-3-D-GLUCOPYRANOSIDASE INHIBITORS” (BIOGEN MA INC., priority 2018, published 2024):
Like-named read-outs stand apart in the source and are kept apart here. Marks after values point to notes of the source that are not given here.

Columns and labels:
[1] = target: Recombinant full length human OGA enzyme (Homo sapiens (Human), UniProt O60502); assay: OGA Enzyme Inhibition Biochemical Assay; conditions: 1 nM OGA, 100 μM 4-MUGlcNAc, pH 6.4
Recombinant full length human OGA enzyme, sequence (O60502 whole entry): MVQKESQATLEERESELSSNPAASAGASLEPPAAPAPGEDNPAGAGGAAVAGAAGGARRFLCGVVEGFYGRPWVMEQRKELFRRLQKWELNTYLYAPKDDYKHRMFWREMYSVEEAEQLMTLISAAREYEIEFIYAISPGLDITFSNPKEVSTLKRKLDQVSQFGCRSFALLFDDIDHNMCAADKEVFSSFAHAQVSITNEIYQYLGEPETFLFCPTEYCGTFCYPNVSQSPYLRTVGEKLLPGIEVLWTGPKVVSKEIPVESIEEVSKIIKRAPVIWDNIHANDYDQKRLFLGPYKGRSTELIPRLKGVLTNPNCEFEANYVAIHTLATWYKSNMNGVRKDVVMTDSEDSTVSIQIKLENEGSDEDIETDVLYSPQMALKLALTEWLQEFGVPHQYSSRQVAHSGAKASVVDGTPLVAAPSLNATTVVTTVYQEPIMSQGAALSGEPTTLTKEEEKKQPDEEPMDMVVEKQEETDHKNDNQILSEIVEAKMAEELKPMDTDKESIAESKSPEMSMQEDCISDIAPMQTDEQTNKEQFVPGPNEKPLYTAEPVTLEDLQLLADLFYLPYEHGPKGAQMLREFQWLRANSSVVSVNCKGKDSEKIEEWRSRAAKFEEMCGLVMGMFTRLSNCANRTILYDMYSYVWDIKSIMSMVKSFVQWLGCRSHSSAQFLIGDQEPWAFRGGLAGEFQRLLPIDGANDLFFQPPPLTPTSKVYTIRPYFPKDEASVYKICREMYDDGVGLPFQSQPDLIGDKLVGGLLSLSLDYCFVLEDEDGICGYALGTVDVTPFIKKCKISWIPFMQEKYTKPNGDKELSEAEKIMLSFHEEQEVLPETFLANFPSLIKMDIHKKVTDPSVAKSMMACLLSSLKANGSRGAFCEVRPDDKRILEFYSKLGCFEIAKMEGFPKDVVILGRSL
Procedure: Recombinant full length human OGA enzyme was purchased from Origene. 4-MUGlcNAc substrate was purchased from Sigma. All other reagents were purchased from Sigma or Fisher. Assay buffer consists of the McIlvaine buffer system, pH 6.4 (0.2M Na2HPO4 mixed with 0.1M citric acid) and 0.01% BSA. […] Reactions were incubated for 90 minutes at room temperature and quenched with 40 μl of 3M glycine, pH 10 and read on a Perkin Elmer Envision plate reader (Ex: 355 nm/Em: 460 nm). Compounds were tested with a 10-point dose-response starting from 20 μM with a 4-fold dilution. Data was fit using GraphPad Prism using a 4-parameter fit with variable slope.

[2] = target: OGA (S400 O-GLCNAC), HEK-293T cells transfected with Tau-V5 (Homo sapiens (Human), UniProt O60502); assay: Cellular OGA-Tau MSD Assay; type: cell-based
OGA (S400 O-GLCNAC), HEK-293T cells transfected with Tau-V5, sequence (O60502 whole entry): as above
Procedure: HEK-293T cells were transfected with […] and Tau-V5 plasmids using Lipofectamine and grown overnight. Next day, the cells were collected and re-plated at 1×10^5 cells per well in 96 well plates. Cells were incubated for 4 hr at 37° C., before compounds were added at 1 uM, with 3-fold dilutions in a 10-point titration. Cell plates were incubated with compounds overnight at 37° C. The next day media was removed from wells by gentle aspiration and 120 ul of 1× Cell Lysis buffer mixed with protease and phosphatase cocktail added to each well. A freeze thaw was performed at -80° C., then mixed before transferring 50 ul to MSD plates coated with V5-tag antibody to capture Tau. MSD Plates were incubated overnight at 4° C., on a plate shaker. The following day, plates were washed and incubated with Tau-[…]-GlcNAc antibody for 2 hr and then developed with rabbit Sulfo-tag antibody. Final read out was carried out on an MSD 600 reader. The data was analyzed using Graph Pad or Genedata, the data was normalized and % activity versus log of compound concentration was plotted. The IC50 values were obtained from a 4 parameter fit.

P-gp (MDR1) = assay: MDR1-MDCK Efflux Ratio Assay; type: in vitro ADME; conditions: dog, read-out: MDR1-MDCK Efflux Ratio (B-A/A-B)
Procedure: MDR1-MDCK cell monolayers were grown to confluence on microporous polyester membranes in 96-well Corning insert plates. The permeability assay buffer was Hanks' Balanced Salt Solution containing 10 mM HEPES at pH of 7.4. Loperamide (1 μM) was used as a positive control P-gp substrate. Propranolol and Bestatin (1 μM) were used as high and low permeability comparators, respectively. Test compounds or positive control P-gp substrate/permeability comprators were added to respective apical and basolateral chambers for bidirectional assessment of permeability. Receiver buffer (transport buffer supplemented with 1% bovine serum albumin) was added to respective receiver chambers. MDR1-MDCK cells were incubated with test compounds at 37° C. with 5% CO2 for 2 hr. Samples were collected from the donor chamber at both 0 and 120 minutes, and from the receiver chamber at 120 minutes. Test and control compound concentrations were determined using LC-MS/MS analysis. Each determination was performed in triplicate. The apparent permeability (Papp), efflux ratio and mass balance (percent recovery) were calculated as follows: [formula] where: dCr/dt is the cumulative concentration in the receiver compartment versus time in μM s^−1 Vr is the volume of the receiver compartment in cm^3 Vd is the volume of the donor compartment in cm^3 A is the area of the insert (0.143 cm^2 for 96-well insert) CE is the estimated experimental concentration (Time=0) of the dosing solution Cr^final is the concentration of the receiver at the end of the incubation period Cd^final is the concentration of the donor at the end of the incubation period.

[3] = Rat Liver Microsome Stability Assay; type: in vitro ADME
[4] = HEK-293T cells, Tau-S400-GlcNAc MSD readout
[5] = MDCK-MDR1, pH 7.4, MDR1-MDCK cells, 2 hr, pH 7.4
[6] = MDCK-MDR1, pH 7.4, repeated assay, value marked with asterisk (*)
[7] = rat liver microsomes, 1 uM compound
[8] = repeated assay, value marked with asterisk (*)

| IC50 [1] [nM] | IC50 [2, 4] [nM] | efflux ratio at 2 h (P-gp (MDR1); [5]) | efflux ratio at 2 h (P-gp (MDR1); [6]) | RLM % Qh (%) [3, 7] [%] | IC50 [2, 8] [nM] | RLM % Qh (%) [3, 8] | SMILES |
| --- | --- | --- | --- | --- | --- | --- | --- |
| 210 | 35 | 2.3 | 2.1 | 86 | – | – | CC(=O)Nc1ncc(CN2CCC[C@H](Oc3ccc(F)cn3)C2)s1 [Example 1-2, (S)—N-(5-((3-((5-fluoropyridin-2-yl)oxy)piperidin-1-yl)methyl)thiazol-2-yl)acetamide] |
| 1.3 | 19 | 6.3 | – | 50 | – | – | CC(=O)Nc1nc(F)c(CN2C[C@H](Oc3cncnc3)C[C@@H]2C)s1 [Example 1-119, N-(4-fluoro-5-(((2S,4R)-2-methyl-4-(pyrimidin-5-yloxy)pyrrolidin-1-yl)methyl)thiazol-2-yl)acetamide] |
| 28 | 115 | 1.9 | – | 76 | – | – | CC(=O)Nc1ncc(CN2C[C@H](Oc3ccc(F)cn3)C[C@H]2C)s1 [Example 1-10, N-(5-(((2R,4R)-4-((5-fluoropyridin-2-yl)oxy)-2-methylpyrrolidin-1-yl)methyl)thiazol-2-yl)acetamide] |
| 17 | 51 | 2.9 | – | 65 | – | – | COc1cc(O[C@@H]2CCCN(Cc3sc(NC(C)=O)nc3F)C2)ncn1 [Example 1-33, (R)—N-(4-fluoro-5-((3-((6-methoxypyrimidin-4-yl)oxy)piperidin-1-yl)methyl)thiazol-2-yl)acetamide] |
| < 1 | 3 | 30.3 | – | 37 | – | – | CC(=O)Nc1ncc(CN2C[C@H](Oc3cc(N4CCOCC4)ncn3)C[C@@H]2C)s1 [Example 1-130, N-(5-(((2S,4R)-2-methyl-4-((6-morpholinopyrimidin-4-yl)oxy)pyrrolidin-1-yl)methyl)thiazol-2-yl)acetamide] |
| 14 | 32 | 3.1 | – | 83 | – | – | COc1cc(O[C@H]2CCCN(Cc3sc(NC(C)=O)nc3F)C2)ncn1 [Example 1-32, (S)—N-(4-fluoro-5-((3-((6-methoxypyrimidin-4-yl)oxy)piperidin-1-yl)methyl)thiazol-2-yl)acetamide] |
| < 1 | 1 | 1.5 | – | 76 | – | – | CC(=O)Nc1nc(F)c(CN2C[C@H](Oc3ccc(F)cn3)C[C@@H]2C)s1 [Example 1-47, N-(4-fluoro-5-(((2S,4R)-4-((5-fluoropyridin-2-yl)oxy)-2-methylpyrrolidin-1-yl)methyl)thiazol-2-yl)acetamide] |
| < 1 | 1 | 3.6 | – | 72 | – | – | CC(=O)Nc1nc(F)c(CN2C[C@H](Oc3ncc(Cl)cn3)C[C@@H]2C)s1 [Example 1-95, N-(5-(((2S,4R)-4-((5-chloropyrimidin-2-yl)oxy)-2-methylpyrrolidin-1-yl)methyl)-4-fluorothiazol-2-yl)acetamide] |
| 2.4 | 12 | 11.7 | – | 48 | – | – | CC(=O)Nc1ncc(CN2C[C@H](Oc3cc(C(F)F)ncn3)C[C@@H]2C)s1 [Example 1-18, N-(5-(((2S,4R)-4-((6-(difluoromethyl)pyrimidin-4-yl)oxy)-2-methylpyrrolidin-1-yl)methyl)thiazol-2-yl)acetamide] |
| < 1 | 3 | 3.7 | – | 52 | – | – | CC(=O)Nc1nc(F)c(CN2C[C@H](Oc3ccnc(F)c3)C[C@@H]2C)s1 [Example 1-97, N-(4-fluoro-5-(((2S,4R)-4-((2-fluoropyridin-4-yl)oxy)-2-methylpyrrolidin-1-yl)methyl)thiazol-2-yl)acetamide] |
| 2.1 | 5 | 2.1 | – | 61 | – | – | CC(=O)Nc1nc(F)c(CN2C[C@H](Oc3cnc(C(F)F)cn3)C[C@@H]2C)s1 [Example 1-113, N-(5-(((2S,4R)-4-((5-(difluoromethyl)pyrazin-2-yl)oxy)-2-methylpyrrolidin-1-yl)methyl)-4-fluorothiazol-2-yl)acetamide] |
| < 1 | 1 | 2.2 | – | 95 | – | – | COc1cccc(O[C@@H]2C[C@H](C)N(Cc3sc(NC(C)=O)nc3F)C2)n1 [Example 1-99, N-(4-fluoro-5-(((2S,4R)-4-((6-methoxypyridin-2-yl)oxy)-2-methylpyrrolidin-1-yl)methyl)thiazol-2-yl)acetamide] |
| < 1 | 3 | 1.1 | 1.9 | 73 | – | – | CC(=O)Nc1ncc(CN2C[C@H](Oc3ccc(F)cn3)C[C@@H]2C)s1 [Example 1-11, N-(5-(((2S,4R)-4-((5-fluoropyridin-2-yl)oxy)-2-methylpyrrolidin-1-yl)methyl)thiazol-2-yl)acetamide] |
| < 1 | 1 | 22.4 | – | 47 | – | – | CC(=O)Nc1nc(F)c(CN2C[C@H](Oc3cc(C)nc(C)c3)C[C@@H]2C)s1 [Example 1-50, N-(5-(((2S,4R)-4-((2,6-dimethylpyridin-4-yl)oxy)-2-methylpyrrolidin-1-yl)methyl)-4-fluorothiazol-2-yl)acetamide] |
| 33 | 55 | 12.9 | – | 76 | – | – | CC(=O)Nc1nc(F)c(CN2C[C@@H](Oc3cc(C)nc(C)c3)C[C@@H]2C)s1 [Example 1-52, N-(5-(((2S,4S)-4-((2,6-dimethylpyridin-4-yl)oxy)-2-methylpyrrolidin-1-yl)methyl)-4-fluorothiazol-2-yl)acetamide] |
| < 1 | 4 | 25.6 | – | 75 | – | – | CC(=O)Nc1nc(F)c(CN2C[C@H](Oc3cc(N4CCOCC4)ccn3)C[C@@H]2C)s1 [Example 1-143, N-(4-fluoro-5-(((2S,4R)-2-methyl-4-((4-morpholinopyridin-2-yl)oxy)pyrrolidin-1-yl)methyl)thiazol-2-yl)acetamide] |
| 420 | > 1000 | 45.3 | – | 16 | – | – | CC(=O)Nc1ncc(CN2C[C@@H](Oc3cc(C)nc(C)c3)C[C@H]2C)s1 [Example 1-63, N-(5-(((2R,4S)-4-((2,6-dimethylpyridin-4-yl)oxy)-2-methylpyrrolidin-1-yl)methyl)thiazol-2-yl)acetamide] |
| < 1 | 3 | 10 | 8.9 | 97 | 2 | 98* % | COc1cncc(O[C@@H]2C[C@H](C)N(Cc3cnc(NC(C)=O)s3)C2)n1 [Example 1-12, N-(5-(((2S,4R)-4-((6-methoxypyrazin-2-yl)oxy)-2-methylpyrrolidin-1-yl)methyl)thiazol-2-yl)acetamide] |
| < 1 | 2 | 5.2 | – | 35 | – | – | [2H]C([2H])([2H])C(=O)Nc1ncc(CN2C[C@H](Oc3cc(OC)ncn3)C[C@@H]2C)s1 (single isomer, unassigned) [Example 1-156] |
| < 1 | 2 | 4.7 | – | 54 | – | – | CC(=O)Nc1ncc(CN2C[C@H](Oc3ccc(F)nc3)C[C@@H]2C)s1 [Example 1-115, N-(5-(((2S,4R)-4-((6-fluoropyridin-3-yl)oxy)-2-methylpyrrolidin-1-yl)methyl)thiazol-2-yl)acetamide] |
